We go through one compound from paper PMC7565988, “Insight into the Anticancer Activity of Copper(II) 5-Methylenetrimethylammonium-Thiosemicarbazonates and Their Interaction with Organic Cation Transporters” (Biomolecules, 2020).

The nature of data set [1]: EPR spin trapping (DMPO/H2O2), ROS generation in cell-free media. Conditions: DMPO/H2O2 aqueous system. As to the method: The generation of paramagnetic intermediates was monitored by cw-EPR spectroscopy using the EMXplus spectrometer and spin trapping technique. Deionised water was used for preparation of aqueous solutions. The spin trapping agent 5,5-dimethyl-1-pyrroline N-oxide (DMPO; Sigma-Aldrich) was distilled prior to the application. The EPR spectra were measured with following experimental parameters: X-band, room temperature, microwave frequency, 9.448 GHz; 100 kHz field modulation amplitude, 2 G; time constant, 10 ms; scan time, 21 s (three scans). Glutathione from Sigma-Aldrich; 6-hydroxy-2,5,7,8-tetramethylchroman-2-carboxylic acid (Trolox, 97%, Sigma-Aldrich); K2S2O8 (p.a. purity, Merck); 2,2′-azinobis [3-ethylbenzothiazoline-6-sulfonic acid] (ABTS; purum, >99%; Fluka) were used as received. Deionised high-purity grade H2O, with conductivity of […], was produced by using the TKA H2O purification system (Water Purification Systems GmbH, D-Niederelbert). For the ABTS decolourisation assay, the radical cations were pre-formed by the reaction of an aqueous solution of K2S2O8 (3.30 mg) in H2O (5 mL) with ABTS (17.2 mg). The resulting bluish-green radical cation (ABTS^•+) solution was stored overnight in the dark. […] The optical spectra were recorded from 1 to 40 min in 1 cm quartz UV cuvette after mixing the sample water/DMSO solution with ABTS^•+ in mixed solvent water/DMSO (20% (v/v)).

Data set [2] is described as follows: 1H NMR titration, pKa of E/Z isomers. In kind it is physicochemical. The note with it: 10% D2O/H2O, cL = 200 μM, I = 0.1 M (KCl), 25 °C. As to the method:
^1H NMR spectroscopic studies were carried out on a Bruker Avance III HD instrument (Bruker BioSpin GmbH, Rheinstetten, Germany). All spectra were recorded with the WATERGATE water suppression pulse scheme using DSS internal standard.

Structures are written as SMILES. Read-outs that look alike come from different tables or passages of the source.

In the case of `C[N+](C)(C)Cc1ccc(O)c(/C=N/NC(N)=S)c1` [[H2L^H]Cl], the radical formation entry in data set [1] is reported as “no radical formation”. The pKa (commonly the negative logarithm of the acid dissociation constant) in data set [2] (read-out: pKa of major E isomer) amounted to 7.51; in data set [2] (read-out: pKa of minor Z isomer), 6.95.
